Data from ChEMBL document CHEMBL3603741, “Structure activity relationship of pyridoxazinone substituted RHS analogs of oxabicyclooctane-linked 1,5-naphthyridinyl novel bacterial topoisomerase inhibitors as broad-spectrum antibacterial agents (Part-6)” (Bioorg Med Chem Lett, 2015).
In brackets after ≈: the same amount, converted by molar mass.

Key:
[1] = tested on: Pseudomonas aeruginosa; test: Antibacterial activity against Pseudomonas aeruginosa PAO1; assay type: functional
[2] = tested on: Escherichia coli; test: Antibacterial activity against Escherichia coli ATCC 25922; assay type: functional
[3] = tested on: Acinetobacter baumannii; test: Antibacterial activity against Acinetobacter baumannii IID876; assay type: functional
[4] = tested on: Staphylococcus aureus; test: Antibacterial activity against Staphylococcus aureus Smith; assay type: functional
[5] = tested on: Streptococcus pneumoniae; test: Antibacterial activity against Streptococcus pneumoniae IID553; assay type: functional
[6] = tested on: Enterococcus faecium; test: Antibacterial activity against VanA-resistant Enterococcus faecium; assay type: functional
[7] = molecular target: T1, Voltage-gated inwardly rectifying potassium channel KCNH2 (Homo sapiens, UniProt Q12809); test: Inhibition of MK499 binding to human ERG
[8] = tested on: Staphylococcus aureus; test: Ratio of MIC for quinolone-resistant Staphylococcus aureus MS5935 to MIC for […]; assay type: functional
[9] = molecular target: T1, Voltage-gated inwardly rectifying potassium channel KCNH2; test: Inhibition of human ERG expressed in CHO cells measured for 5 mins by automated patch clamp assay
[10] = tested on: Staphylococcus aureus; test: Antibacterial activity against Staphylococcus aureus Smith infected in iv dosed ICR mouse assessed as increase in survival rate administered at 1 hr post infection measured on day 7; assay type: functional
[11] = tested on: Staphylococcus aureus; test: Antibacterial activity against Staphylococcus aureus Smith infected in po dosed ICR mouse assessed as increase in survival rate administered at 1 hr post infection measured on day 7; assay type: functional
[12] = Pseudomonas aeruginosa, PAO1, read-out: MIC
[13] = Escherichia coli, ATCC 25922, read-out: MIC
[14] = Acinetobacter baumannii, IID876, read-out: MIC
[15] = Staphylococcus aureus, Smith, read-out: MIC
[16] = Streptococcus pneumoniae, IID553, read-out: MIC
[17] = Enterococcus faecium, read-out: MIC

T1 sequence (Q12809 whole entry): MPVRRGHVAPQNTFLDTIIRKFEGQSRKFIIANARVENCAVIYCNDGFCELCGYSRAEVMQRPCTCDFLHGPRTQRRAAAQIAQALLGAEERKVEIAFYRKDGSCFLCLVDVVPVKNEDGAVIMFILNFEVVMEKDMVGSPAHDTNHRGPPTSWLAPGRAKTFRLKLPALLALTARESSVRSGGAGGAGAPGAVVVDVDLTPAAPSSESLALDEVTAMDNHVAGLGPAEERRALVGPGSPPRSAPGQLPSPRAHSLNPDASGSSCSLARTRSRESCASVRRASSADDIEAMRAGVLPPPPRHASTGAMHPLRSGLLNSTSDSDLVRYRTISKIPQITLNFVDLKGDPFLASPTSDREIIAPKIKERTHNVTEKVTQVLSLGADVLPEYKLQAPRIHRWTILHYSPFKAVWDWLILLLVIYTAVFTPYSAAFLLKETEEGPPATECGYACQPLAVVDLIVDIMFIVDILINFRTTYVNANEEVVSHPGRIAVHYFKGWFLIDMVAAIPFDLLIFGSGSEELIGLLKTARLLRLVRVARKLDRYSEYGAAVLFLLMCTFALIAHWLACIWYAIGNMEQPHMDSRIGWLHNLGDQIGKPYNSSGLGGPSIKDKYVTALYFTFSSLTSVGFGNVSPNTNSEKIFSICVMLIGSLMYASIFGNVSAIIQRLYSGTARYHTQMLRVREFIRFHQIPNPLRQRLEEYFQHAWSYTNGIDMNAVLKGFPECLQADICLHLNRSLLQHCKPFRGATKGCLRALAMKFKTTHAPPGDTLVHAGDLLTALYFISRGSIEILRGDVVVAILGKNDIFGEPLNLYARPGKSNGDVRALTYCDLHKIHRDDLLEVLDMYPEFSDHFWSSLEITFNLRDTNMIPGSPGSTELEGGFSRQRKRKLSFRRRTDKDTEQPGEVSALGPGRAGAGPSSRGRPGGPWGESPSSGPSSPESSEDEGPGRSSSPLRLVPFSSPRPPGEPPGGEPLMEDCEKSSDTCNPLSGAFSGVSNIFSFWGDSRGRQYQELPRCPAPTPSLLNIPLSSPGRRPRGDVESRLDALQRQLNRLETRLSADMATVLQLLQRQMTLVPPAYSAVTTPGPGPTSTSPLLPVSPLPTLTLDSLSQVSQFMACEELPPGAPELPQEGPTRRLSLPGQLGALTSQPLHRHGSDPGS

| SMILES | MIC [1, 12] | MIC [2, 13] | MIC [3, 14] | MIC [4, 15] | MIC [5, 16] | MIC [6, 17] | IC50 [7] | Ratio [8] | IC50 [9] | ED50 [10] | ED50 [11] | MIC [4] | MIC [5] | MIC [1] | MIC [2] | MIC [3] | MIC [6] |
| --- | --- | --- | --- | --- | --- | --- | --- | --- | --- | --- | --- | --- | --- | --- | --- | --- | --- |
| COc1ccc2ncc(F)c(CCC34CCC(NCc5ccc6c(n5)N(C)C(=O)CO6)(CC3)CO4)c2n1 | 16 µg/mL (≈ 31.5 µM) | 16 µg/mL (≈ 31.5 µM) | 16 µg/mL (≈ 31.5 µM) | 2 µg/mL (≈ 3.94 µM) | 2 µg/mL (≈ 3.94 µM) | 16 µg/mL (≈ 31.5 µM) | – | – | – | – | – | – | – | – | – | – | – |
| COc1ccc2ncc(F)c(CCC34CCC(N(C)Cc5ccc6c(n5)NC(=O)CO6)(CC3)CO4)c2n1 | 32 µg/mL (≈ 63 µM) | 16 µg/mL (≈ 31.5 µM) | 8 µg/mL (≈ 15.8 µM) | 0.13 µg/mL (≈ 0.256 µM) | 2 µg/mL (≈ 3.94 µM) | 8 µg/mL (≈ 15.8 µM) | 1.2 µM | <4 | – | – | – | – | – | – | – | – | – |
| COC(=O)N(Cc1ccc2c(n1)NC(=O)CO2)C12CCC(CCc3c(F)cnc4ccc(OC)nc34)(CC1)OC2 | 64 µg/mL (≈ 116 µM) | 64 µg/mL (≈ 116 µM) | 64 µg/mL (≈ 116 µM) | 16 µg/mL (≈ 29 µM) | 64 µg/mL (≈ 116 µM) | 64 µg/mL (≈ 116 µM) | – | – | – | – | – | – | – | – | – | – | – |
| COc1ccc2ncc(F)c(CCC34CCC(NC(=O)c5ccc6c(n5)NC(=O)CO6)(CC3)CO4)c2n1 | 8 µg/mL (≈ 15.8 µM) | 8 µg/mL (≈ 15.8 µM) | 8 µg/mL (≈ 15.8 µM) | 0.02 µg/mL (≈ 0.0394 µM) | 0.5 µg/mL (≈ 0.985 µM) | 1 µg/mL (≈ 1.97 µM) | – | – | – | – | – | – | – | – | – | – | – |
| COc1ccc2ncc(F)c(CCC34CCC(N(C)C(=O)c5ccc6c(n5)NC(=O)CO6)(CC3)CO4)c2n1 | 4 µg/mL (≈ 7.67 µM) | 4 µg/mL (≈ 7.67 µM) | 4 µg/mL (≈ 7.67 µM) | 0.03 µg/mL (≈ 0.0575 µM) | 4 µg/mL (≈ 7.67 µM) | 4 µg/mL (≈ 7.67 µM) | > 60 µM | <4 | > 30 µM | – | – | – | – | – | – | – | – |
| COc1ccc2ncc(F)c(C[C@H](O)C3CCC(NCc4nc5c(cc4F)OCC(=O)N5)CO3)c2n1 (stereo partly drawn) | 16 µg/mL (≈ 31.9 µM) | 4 µg/mL (≈ 7.98 µM) | 1 µg/mL (≈ 1.99 µM) | 0.03 µg/mL (≈ 0.0598 µM) | 0.25 µg/mL (≈ 0.499 µM) | 2 µg/mL (≈ 3.99 µM) | – | – | – | 3.2 mg/kg | 6.7 mg/kg | – | – | – | – | – | – |
| COc1ccc2ncc(F)c(C[C@H](O)C3CCC(NCc4nc5c(cc4OC)OCC(=O)N5)CO3)c2n1 (stereo partly drawn) | 16 µg/mL (≈ 31.2 µM) | 16 µg/mL (≈ 31.2 µM) | 16 µg/mL (≈ 31.2 µM) | 16 µg/mL (≈ 31.2 µM) | 16 µg/mL (≈ 31.2 µM) | 16 µg/mL (≈ 31.2 µM) | – | <4 | – | – | – | – | – | – | – | – | – |
| COc1ccc2ncc(F)c(C[C@H](O)C3CCC(NCc4ccc5c(n4)NC(=O)CO5)CO3)c2n1 (stereo partly drawn) | 32 µg/mL (≈ 66.2 µM) | 16 µg/mL (≈ 33.1 µM) | 2 µg/mL (≈ 4.14 µM) | 0.03 µg/mL (≈ 0.062 µM) | 2 µg/mL (≈ 4.14 µM) | 2 µg/mL (≈ 4.14 µM) | – | <4 | – | – | – | – | – | – | – | – | – |
| COc1ccc2ncc(F)c(CCC34CCC(NCc5ccc6c(n5)NC(=O)C(C)O6)(CC3)CO4)c2n1 (single isomer, unassigned; (+)) | 2 µg/mL (≈ 3.94 µM) | 2 µg/mL (≈ 3.94 µM) | 2 µg/mL (≈ 3.94 µM) | – | 0.25 µg/mL (≈ 0.493 µM) | 2 µg/mL (≈ 3.94 µM) | – | – | – | – | – | 0.25 µg/mL (≈ 0.493 µM) | – | – | – | – | – |
| CCOC(=O)C1(C)Oc2ccc(CNC34CCC(CCc5c(F)cnc6ccc(OC)nc56)(CC3)OC4)nc2NC1=O (single isomer, unassigned; (+)) | 16 µg/mL (≈ 27.6 µM) | 16 µg/mL (≈ 27.6 µM) | 16 µg/mL (≈ 27.6 µM) | 16 µg/mL (≈ 27.6 µM) | – | 16 µg/mL (≈ 27.6 µM) | – | – | – | – | – | – | 16 µg/mL (≈ 27.6 µM) | – | – | – | – |
| COc1ccc2ncc(F)c(CCC34CCC(NCc5ccc6c(n5)NC(=O)C(C)O6)(CC3)CO4)c2n1 (single isomer, unassigned; (-)) | – | – | – | – | – | – | – | – | – | 14 mg/kg | 28 mg/kg | 0.06 µg/mL (≈ 0.118 µM) | 0.25 µg/mL (≈ 0.493 µM) | 2 µg/mL (≈ 3.94 µM) | 2 µg/mL (≈ 3.94 µM) | 1 µg/mL (≈ 1.97 µM) | 2 µg/mL (≈ 3.94 µM) |
| CCOC(=O)C1(C)Oc2ccc(CNC34CCC(CCc5c(F)cnc6ccc(OC)nc56)(CC3)OC4)nc2NC1=O (single isomer, unassigned; (-)) | – | – | – | – | 8 µg/mL (≈ 13.8 µM) | – | – | – | – | – | – | 8 µg/mL (≈ 13.8 µM) | – | 8 µg/mL (≈ 13.8 µM) | 8 µg/mL (≈ 13.8 µM) | 8 µg/mL (≈ 13.8 µM) | 8 µg/mL (≈ 13.8 µM) |
